Like-named read-outs stand apart in the source and are kept apart here.

The subject of one assay is Cervix HeLa cells. The assay is described as follows: Cell proliferation, 24 h drug exposure. The note with it: Cervix HeLa, 24 h, read-out: IC50 for proliferation cell rate. It is filed as cell-based, human. On the procedure: (§1) All metastatic (breast MDA-MB231, MDA-MB468, cervix HeLa, prostate PC3, colorectal HCT116, COLO205, glioblastoma U373), low-metastatic (breast MCF-7) cancer and non-cancer (fibroblast 3T3, cardiomyocytes H9C2) cell lines (American Type Culture Collection, Rockville, MD, USA) used in this study were cultured in Petri dishes in 20 mL of Dulbecco’s Modified Eagle’s Medium (DMEM, Sigma, MO, USA) supplemented with 10% fetal bovine serum (Biowest, Mexico) and 10,000 U penicillin/streptomycin (Sigma-Aldrich, MO, USA). […] For growth and maintenance, cells were incubated in 5% CO2/95% air at 37°C and kept until 80–90% of confluence was reached. Then, cells were harvested, washed by centrifugation and resuspended in Krebs-Ringer buffer (KR, 125 mM NaCl, 5 mM KCl, 25 mM Hepes, 1 mM MgCl2, 1 mM KH2PO4, 1.4 mM CaCl2, pH 7.4) for further use. For experimentation, cancer cells (3–5 x 10^6 cells) were cultured in DMEM (with 25 mM glucose) for 24 h in the absence of drugs. Afterwards, old-medium was replaced with fresh DMEM medium (with 25 mM glucose) in the absence (control, non-treated cells) or in the presence of logarithmic concentrations of Aur and MA for 24 h more, under the same culture conditions described above. Viability of cultured cells was determined by the trypan blue exclusion assay. The protein concentration was determined by the Lowry method.
(§2) For cell proliferation in the presence of drugs, cancer cells (20 x 10^3 cells/well) were grown in 96-well plates containing DMEM (Sigma-Aldrich) plus 10% bovine fetal serum for 24 h. […] The effect of these drugs on cell proliferation was determined in 96-well plates by the MTT (3-[4,5-dimethyl-thiazol-2-yl]-2,5-diphenyltetrazolium bromide) assay. The viability of cancer cells was > 95% after treatment with drugs.

In a further assay the test system is Glioblastoma U373 cells. The assay is described as follows: Cell proliferation, 24 h drug exposure. It counts as cell-based, human. Particulars: Glioblastoma U373, 24 h, read-out: IC50 for proliferation cell rate. On the procedure:
as §1, §2

The subject of a further assay is Breast MDA-MB-231 cells. The experiment in a line: Cell proliferation, 24 h drug exposure. It counts as cell-based, human. The note with it: Breast MDA-MB-231, 24 h, read-out: IC50 for proliferation cell rate. On the procedure: as §1
(§3) For cell proliferation in the presence of drugs, cancer cells (20 x 10^3 cells/well) were grown in 96-well plates containing DMEM (Sigma-Aldrich) plus 10% bovine fetal serum for 24 h. Afterwards, Aur or MA (0.01, 0.1, 10 and 100 μM) were added to the cell cultures and incubated for additional 24 h. The effect of these drugs on cell proliferation was determined in 96-well plates by the MTT (3-[4,5-dimethyl-thiazol-2-yl]-2,5-diphenyltetrazolium bromide) assay. The viability of cancer cells was > 95% after treatment with drugs.

A further assay concerns HeLa cells. Details: method as in PMID 33333716. The note with it: CP alone at doses of Table 5; cited from earlier work.
For a further assay, the system named is Breast MCF-7 cells. The experiment in a line: Cell proliferation, 24 h drug exposure. It is filed as cell-based, human. Particulars: Homo sapiens, MCF7; Breast MCF-7 (low metastatic); 24 h; read-out: IC50 for proliferation cell rate. The protocol:
as §1, §3

The next assay relates to Colorectal HCT116 cells. The experiment in a line: Cell proliferation, 24 h drug exposure. It is filed as cell-based, human. Particulars: Homo sapiens, HCT-116; Colorectal HCT116; 24 h; read-out: IC50 for proliferation cell rate. The protocol: as §1, §3
The subject of the next assay is Prostate PC3 cells. The experiment in a line: Cell proliferation, 24 h drug exposure. It is filed as cell-based, human. Particulars: Homo sapiens, PC-3; Prostate PC3; 24 h; read-out: IC50 for proliferation cell rate. The protocol:
as §1, §3

For a further assay, the system named is 3T3 mouse fibroblasts. The assay is described as follows: Cell proliferation, 24 h drug exposure (non cancer cells). The note with it: Fibroblast, 3T3 mouse fibroblasts (non cancer), read-out: IC50 for proliferation cell rate. It counts as cell-based. On the procedure:
as §1, §3

In assay [1] the test system is H9C2 mouse cardiomyocytes. Described as above. It counts as cell-based. The note with it: read-out: IC50 for proliferation cell rate. The protocol: as §1, §3
For a further assay, the system named is cancer cell lines. The experiment in a line: Cancer cell proliferation, pooled over the cell lines of Table 1. It is filed as cell-based, human. The note with it: for IC50: Homo sapiens, cancer cells, 24 h, read-out: IC50 values on cancer cell proliferation (range over cell lines). The protocol: as §1, §2
The test system of the next assay is non-cancer cells. The assay is described as follows: Non-cancer cell proliferation, pooled. Particulars: Mus musculus, 24 h, read-out: IC50 values for non-cancer cells (range). It is filed as cell-based. The protocol: as §1, with “For experimentation, cancer cells (3–5 x 10^6 cells) were cultured in DMEM (with 25 mM glucose) for 24 h in the absence of drugs. Afterwards, old-medium was replaced with fresh DMEM medium (with 25 mM glucose) in the absence (control, non-treated cells) or in the presence of logarithmic concentrations of Aur and MA for 24 h more, under the same culture conditions described above.” left out
For cell proliferation in the presence of drugs, cancer cells (20 x 10^3 cells/well) were grown in 96-well plates containing DMEM (Sigma-Aldrich) plus 10% bovine fetal serum for 24 h. […] The effect of these drugs on cell proliferation was determined in 96-well plates by the MTT (3-[4,5-dimethyl-thiazol-2-yl]-2,5-diphenyltetrazolium bromide) assay. […]

Another assay concerns Breast MDA-MB-468 cells. The experiment in a line: Cell proliferation, 24 h drug exposure. It is filed as cell-based, human. The note with it: Homo sapiens; Breast MDA-MB-468; 24 h; read-out: IC50 for proliferation cell rate. On the procedure: as §1, §3
For a further assay, the system named is Colorectal COLO205 cells. The experiment in a line: Cell proliferation, 24 h drug exposure. It is filed as cell-based, human. Particulars: Homo sapiens, COLO 205; Colorectal COLO205; 24 h; read-out: IC50 for proliferation cell rate. On the procedure:
as §1, §3

The test system of assay [2] is HeLa, MDA MB-231, and A548 (lung cancer) cells. The assay is described as follows: Oxygen consumption of cancer cells. The note with it: Homo sapiens, MDA MB-231, A548 cells. It counts as cell-based. The protocol: For oxidative phosphorylation (OxPhos) flux, cells (2–5 mg protein/mL) were incubated at 37°C in air saturated KR medium plus 5 mM glucose. To distinguish the oxygen consumption associated to OxPhos, the cells were incubated with 5 μM oligomycin (Sigma-Aldrich, MO, USA), a potent, specific, and permeable inhibitor of the mitochondrial ATP synthase. The net OxPhos rate was determined by using a Clark type electrode, as previously described and by using a high-resolution respirometer (Oroboros Instruments, Innsbruck, Austria) at 37°C. The contribution of OxPhos and glycolysis to the cellular ATP supply was determined, respectively, from the net OxPhos rate (oligomycin-sensitive respiration) multiplied by the ATP/O or P»/O2 ratio that corresponds to 2.5 or 5, and from the rate of lactate production, assuming a stoichiometry of 1 mol of ATP produced per 1 mol of lactate produced.

Assay [3] relates to HeLa, U373, HCT116, MDA-MB-231 and MDA-MB-468 cells. The assay is described as follows: Cell invasiveness, Boyden chamber. It is filed as cell-based, human. The note with it: perhexiline 4–20 μM; 24 h. On the procedure: The 96-multiwell Boyden chambers (Merck Millipore, MA, USA) assay was performed for cellular invasiveness detection. Cancer cells (5 × 10^4 cells/well) were re-suspended in free-serum DMEM and placed in the upper Boyden chamber compartment. Free-serum DMEM was also placed in the lower compartment of the chamber. Afterwards, the Boyden chamber was placed at 37°C and 95% air/5% CO2 for 24 h. Invasive cancer cells within the lower chamber compartment were detected by using the calcein-AM (60 nM, 1 h) assay at 37°C. Calcein-fluorescence was measured at λexcitation = 485 nm and λemission = 520 nm in a Nunclon microplate reader (Roskilde, Denmark).
S1 Figure. Cancer invasiveness assay in metastatic cancer cells exposed to MA (A) and perhexiline (B) for 24 h. All cancer cell invasiveness was compared with MDA-MB-231 cells, which are cancer cells with the highest invasiveness ability. n=3; *P < 0.05 vs. MDA-MB-231 non-treated cells.

Assay [4] deals with MDA-MB-231 and MDA-MB-468 cells. The experiment in a line: Cell migration, wound healing assay. Particulars: Homo sapiens; 15 μM perhexiline. It is filed as cell-based. The protocol:
The wound healing assay was performed for cell migration detection. In petri dishes with full DMEM, cancer cells (5 x 10^6 cells/well) were cultured at 37°C under 95% air and 5% CO2 until 80–90% confluence was attained. Afterwards, cell culture was wounded with a 1 mL pipette tip, washed twice with PBS (155 mM NaCl, 1.5 mM KH2PO4, 2.7 mM NaH2PO4, pH 7.2) and subsequently incubated at 37°C with fresh non-serum DMEM. Cellular migration images were taken in an inverted microscope (Zeiss, Thornwood, NY, USA) after 0 and 24 h incubation time. Using a graduated reticule (Zeiss, Thornwood, NY, USA), cellular migration was assessed from the petri dish’s border to its center distance travelled.
S2 Figure. Migratory capacity in metastatic triple negative breast cancer cells exposed to perhexiline. n=3; *P < 0.05 vs. Control (Non-treated cells)

In the case of `N.N.[Cl][Pt][Cl]` [CP, cisplatin], the IC50 in the assay on Cervix HeLa cells was greater than 1000 µM; in the assay with Glioblastoma U373 cells, greater than 1000 µM; with Breast MDA-MB-231 cells, 72 µM. The “effect on proliferation rate, OxPhos, cellular invasiveness” value in the assay with HeLa cells is on record as “no effect”.

With `CCC(C)(C)C(=O)O[C@H]1C[C@@H](C)C=C2C=C[C@H](C)[C@H](CC[C@@H]3C[C@@H](O)CC(=O)O3)[C@H]21` [Simvastatin], the IC50 with Cervix HeLa cells (Homo sapiens) was 31 ± 13 µM; in the assay on Glioblastoma U373 cells (Homo sapiens, U373 MG), 131 ± 41 µM; with Breast MCF-7 cells, 126 ± 65 µM; in the assay with Breast MDA-MB-231 cells (Homo sapiens), 111 ± 45 µM; with Colorectal HCT116 cells, 147 ± 58 µM; in the assay with Prostate PC3 cells, 31 ± 16 µM. In addition, the IC50 was 222 ± 60 µM with 3T3 mouse fibroblasts, 100 ± 32 µM in [1], 31 to 147 µM in the assay on cancer cell lines and 100 to 222 µM in the assay with non-cancer cells.

As for `C1CCC(C(CC2CCCCN2)C2CCCCC2)CC1` (stereo not drawn) [Perhexiline], the IC50 with Cervix HeLa cells (Homo sapiens) turned out to be 4 ± 3 µM; with Glioblastoma U373 cells (Homo sapiens, U373 MG), 18.5 ± 2 µM; in the assay on Breast MCF-7 cells, 20.5 ± 10 µM; in the assay on Breast MDA-MB-231 cells (Homo sapiens) it was 11 ± 0.6 µM; in the assay with Breast MDA-MB-468 cells it was 15 ± 0.8 µM; with Colorectal COLO205 cells, 16 ± 5 µM. Moreover, the IC50 in the assay with Colorectal HCT116 cells is 16 ± 7 µM; in the assay with 3T3 mouse fibroblasts it was 81.5 ± 8 µM; in assay [1] it was greater than 100 µM; with cancer cell lines it was 4 to 20 µM; with non-cancer cells it was 30 to 100 µM. In [2], this compound came in with an inhibition at 10 µM of 36 to 70%. Also, in assay [3], the “inhibition of cell invasiveness” value was 37–53%. In [4], this compound came in with an inhibition at 15 µM of 50 to 60%.

In the case of `CC1=C(CC(=O)O)c2cc(F)ccc2/C1=C\c1ccc([S+](C)[O-])cc1` (stereo not drawn) [Sulindac], the IC50 in the assay with Cervix HeLa cells (Homo sapiens) is greater than 500 µM; in the assay with Glioblastoma U373 cells (Homo sapiens, U373 MG) it was greater than 500 µM; in the assay with Breast MCF-7 cells, greater than 500 µM; in the assay on Breast MDA-MB-231 cells (Homo sapiens), 463 µM; with Colorectal HCT116 cells, greater than 500 µM; in the assay on 3T3 mouse fibroblasts it was greater than 500 µM. The IC50 in assay [1] is greater than 500 µM. The “effect on cancer cell proliferation” value with cancer cell lines (up to 500 μM, 24 h incubation) was “not significantly affected”.

By inhibition is commonly meant the relative decrease from the control value, in per cent.

The values above are taken from publication PMC11407620, “Repurposing auranofin and meclofenamic acid as energy-metabolism inhibitors and anti-cancer drugs” (PLOS ONE, 2024).
